According to the SangsterLogP compilation:

Assay: method code SF, from DOI: 10.1021/jf00121a034

| SMILES | logP |
| --- | --- |
| CON(C)C(=O)Nc1ccc(OCCc2ccc(C)cc2)cc1 | 3.81 |
| CN(C)C(=O)Nc1ccc(C(=O)c2ccccc2)cc1 | 2.59 |
| CN(C)C(=O)Nc1cccc(OCCc2ccccc2)c1 | 3.39 |
| CON(C)C(=O)Nc1ccc(NS(C)(=O)=O)cc1 | 0.14 |
| CON(C)C(=O)Nc1ccc(C2CCCCC2)cc1 | 4.08 |
| CON(C)C(=O)Nc1ccc(OCCc2cccc3ccccc23)cc1 | 4.81 |
| CCNc1ccc(NC(=O)N(C)OC)cc1 | 0.83 |
| CON(C)C(=O)Nc1cccc(OCC(=O)C23CC4CC(CC(C4)C2)C3)c1 | 3.79 |
| CN(C)C(=O)Nc1ccc(C2CCCCC2)cc1 | 3.83 |
| CON(C)C(=O)Nc1ccc(N)cc1 | -0.16 |
| CON(C)C(=O)Nc1ccc(OCCCCOc2ccccc2)cc1 | 3.86 |
| CON(C)C(=O)Nc1cccc([N+](=O)[O-])c1 | 1.64 |
| CCCCc1cccc(NC(=O)N(C)C)c1 | 3.23 |
| CN(C)C(=O)Nc1cccc(O)c1 | 0.51 |
| CON(C)C(=O)Nc1ccc(OCC(=O)C23CC4CC(C2)C4C3)c(Cl)c1 (configuration not stated) | 4.48 |
| CCCCCCCCCCCCOc1ccc(NC(=O)N(C)C)cc1 | 6.93 |
| CON(C)C(=O)Nc1ccc(F)cc1 | 1.46 |
| CON(C)C(=O)Nc1ccc(OCC(=O)C23CC4CC(CC(C4)C2)C3)cc1 | 3.53 |
| CON(C)C(=O)Nc1ccc(CCCCc2ccccc2)cc1 | 5.15 |
| CON(C)C(=O)Nc1ccc(CCCc2ccc(-c3ccccc3)cc2)cc1 | 6.54 |
| CON(C)C(=O)Nc1cccc(CO)c1 | 0.62 |

| SMILES | logP |
| --- | --- |
| CC(=O)c1cccc(NC(=O)N(C)C)c1 | 0.95 |
| CON(C)C(=O)Nc1ccc(OC(C)CC2CCCCC2)cc1 (configuration not stated) | 4.51 |
| CON(C)C(=O)Nc1ccc(C=C(C#N)C#N)cc1 | 2.19 |
| CCOC(=O)c1ccc(NC(=O)N(C)OC)cc1 | 2.24 |
| CON(C)C(=O)Nc1ccc(OCCC2CCCCC2)cc1 | 4.46 |
| CON(C)C(=O)Nc1ccc(CCCc2ccc(Cl)cc2)cc1 | 5.35 |
| CON(C)C(=O)Nc1cccc(C(F)(F)F)c1 | 2.64 |
| CON(C)C(=O)Nc1ccc(C(C)=O)cc1 | 1.22 |
| CON(C)C(=O)Nc1ccc(OCc2ccccc2)cc1 | 3.11 |
| CON(C)C(=O)Nc1ccc(CCCc2ccccc2)cc1 | 4.67 |
| CON(C)C(=O)Nc1cccc(C(C)(C)C)c1 | 3.21 |
| CN(C)C(=O)Nc1cccc([N+](=O)[O-])c1 | 1.46 |
| CON(C)C(=O)Nc1ccc([N+](=O)[O-])cc1 | 1.74 |
| CON(C)C(=O)Nc1cccc(O)c1 | 0.82 |
| CON(C)C(=O)Nc1cccc(OCCCCOc2ccccc2)c1 | 3.86 |
| CON(C)C(=O)Nc1ccc(C(C)C)cc1 | 2.95 |
| CON(C)C(=O)Nc1ccc(C(=O)c2ccccc2)cc1 | 2.86 |
| CC(C)c1ccc(NC(=O)N(C)C)cc1 | 2.87 |
| CN(C)C(=O)Nc1cccc(N)c1 | -0.1 |
| CON(C)C(=O)Nc1cccc(F)c1 | 1.68 |
| CON(C)C(=O)Nc1ccccc1 | 1.29 |
